Where a SMILES comes first, the peptide text is derived from it. The star is where a group is joined. Cbz = O=C(OCc1ccccc1)*

We go through two compounds from patent US20020076401A1, “Heat shock protein inducing factor and method for its in-situ generation from an inactive form” (priority 2000, published 2002).

The test system of series [1] is HSP-inducing factor in serum. As to the kind of experiment: In-vivo activation of HSP-inducing factor by single injection of periodate. The arrangement: species or system mice. Here is the method: (§1) Aliquots of serum, treated as described above, were added to cultures of CH1 cells and cultures of primary human fibroblasts at 20% of final volume. Cultures were incubated for 16 hours at regular tissue culture conditions (37° C., 5% CO2). Following the incubation, cells were collected, washed, and lysed. Lysates were subjected to polyacrylamide gel electrophoresis (PAGE), transferred to nitrocellulose membrane (Awestem transfer≅), and Hsp70 was detected by immunoblotting with Hsp70-specific monoclonal antibody (Spa810) and visualized by ECL technique.
Mice were injected with either intraperitoneally (IP) or subcutaneously (SQ) with 0.2 ml of sodium periodate solution in physiological saline, or with 0.2 ml of physiological saline alone.
Four different concentrations of sodium periodate were used: 15 mM, 30 mM, 60 mM, and 120 mM. In parallel experiments the same concentrations of periodate but prequenched with potassium borohydride as described above were injected. After 2 hours blood samples were collected from tail and serum was used in the assay described above.

Series [2] has as its system HSP-inducing factor in serum. As to the kind of experiment: In-vivo activation of HSP-inducing factor by prolonged release of periodate. The arrangement: species or system mouse. The settings on record: 500 mM released over 72 hours, SQ pump; detected after 3 hours and maintained. Here is the method: In another type of experiment […] of either 500 mM solution of sodium periodate in physiological saline or physiological saline alone were released over a period of 72 hours using microosmotic pumps implanted SQ. In parallel experiments the same concentration of periodate but prequenched with potassium borohydride as described above was administered. After different time periods blood samples were collected from tail and serum was used in the assay described above.

The test system of series [3] is HSP-inducing factor in blood serum and ascites fluid. As to the kind of experiment: In-vitro activation of HSP-inducing factor by sodium periodate. It is filed as cell-based, mouse. On the procedure:
To activate HSP-inducing factor, 200 mM solution of sodium periodate in physicological saline (solutions of sodium periodate in water or in 50 mM sodium acetate pH 5.0 work equally well) was added to aliquots of serum or of ascites fluid to final concentration of 1 mM to 20 mM (at these concentrations and in conditions outlined below, sodium periodate oxidizes only sugar groups). Mixtures were incubated at room temperature in darkness for 1 hour. Following the incubation sodium periodate was quenched by the addition of solution of potassium borohydride in physiological saline to a final concentration equal to 1.5 times excess of the concentration of sodium periodate. The completeness of quenching was verified by using potassium iodide-starch test paper.
as §1

Series [4] concerns Hsp70-inducing activity in serum. As to the kind of experiment: Periodate treatment of serum from differently stressed mice. To be noted: in vitro periodate treatment. Type of series: cell-based.
The test system of series [5] is Hsp72 expression in old cells. To be noted: cited from earlier work.

For `[O-][I+3]([O-])([O-])O` [sodium periodate], in series [1] (maximal sodium periodate concentration, single injection), the “levels of HSP in cell lysates relative to cells incubated with untreated serum” value is reported as “about 10 times”. The “levels of HSP-inducing factor in serum” value in series [1] (mice, IP or SQ 0.2 ml of 15-120 mM, 2 hours) is “substantially increased levels of HSP-inducing factor”; in series [2] it was “Substantially increased levels of HSP-inducing factor”. In addition, the “levels of HSP-inducing factor versus periodate concentration” value in series [1] (mice, single injection) is listed as “directly proportional to the concentrations of periodate used”. The “levels of active factor versus periodate concentration” value in series [3] (assessed by Hsp70 in cell lysates) was “directly proportional to concentrations of sodium periodate used”. In addition, in series [3] (blood serum and ascites fluid, 1 mM to 20 mM, 1 hour, room temperature), the “activation of HSP-inducing factor” value was “strongly activated”. Besides, in series [3] (maximal sodium periodate concentration, serum at 20%, 16 hours), the “Hsp70 in cell lysate relative to cells incubated with untreated serum” value is on record as “at least 50 times”. Moreover, in series [4], the “Hsp70-inducing activity of serum from differently stressed mice after periodate treatment” value is reported as “further increased in all samples to a level identical to that seen in periodate-activated serum from non-stressed mice”.
`CC(C)C[C@@H](C=O)NC(=O)[C@H](CC(C)C)NC(=O)[C@H](CC(C)C)NC(=O)OCc1ccccc1` [MG132] (Cbz-Leu-Leu-Leu-aldehyde): the toxicity result in series [5] is on record as “highly toxic”. Further, in series [5] (old cells), the Hsp72 synthesis entry is given as “induces Hsp72 synthesis via an alternative heat shock transcription factor HSF2”.
